# Assay results as given in PMC12767106, “In Situ Assembly of Transformable Monopeptide on Activated Neutrophils Attenuates NETs‐Induced Hepatocellular Carcinoma Metastasis by Disrupting NE Nuclear Translocation” (Advanced Science, 2025).
# Legend:
# activated neutrophils = assay: Retention on neutrophil membrane, flow cytometry of PpIX; format: cell-based, mouse; conditions: 50 µM, NPs washed off after 4 h, fresh medium for another 8 h
# [1] = Critical aggregation concentration, pyrene probe; format: physicochemical; conditions: I3/I1 ratio, excitation 335 nm, 37 °C, 2 h, NPs 0.01-50 µM
# Method: Submitted to Advanced Science temperature. Following the incubation, 10 µL of the solution was added to a copper mesh at 0 and 24 h. Filter paper was used to remove any extra droplets after an overnight stay. The samples were then stained for five minutes with uranyl acetate and then rinsed for one minute with water (10 µL). Finally, dried samples were observed by TEM (Talos 120C, Thermo Fisher Scientific, USA). DLS (Zetasizer Nano ZS, UK) was used to assess the solution for hydrodynamic size and zeta potential at 0 and 24 h following the incubation. Then, the nanofiber structure at 0 h and 24 h after incubation of FTP-NPs was examined with Circular Dichroism (CD) Spectra (Chirascan, UM, Britain). In addition, the variation of fluorescence emission spectra of PpIX by […]
# transformation of FTP-NPs.
# Pyrene molecules were employed as an indicator to determine the critical aggregation concentration (CAC) of nanoparticles by comparing the fluorescence of their third and first emissive peaks. […] The fluorescence spectra of pyrene (excitation, 335 nm) in different NPs dilutions were recorded. The fluorescence intensity ratio (I3/I1) of the third and first emissive peaks was measured for CAC calculation. […]
# [2] = Nanoparticle size stability by DLS; format: physicochemical; conditions: room temperature, 20 µM, up to 168 h, method and Figure S3 legend name H2O and medium, repeated thrice
# Hepa1-6 cells [3] = assay: Trans-endothelial invasion assay; format: cell-based, mouse; conditions: 48 h, versus Control group
# Method: Cell migration and invasion assay […]
# (§1) Matrigel tube formation assay
# Murine C166 endothelial cells (3×10^4cells/well) were placed on 96-well plates coated with Matrigel (356231, Corning, New York, USA) and incubated with various treatments. […]
# (§2) In vitro permeability assays and trans-endothelial invasion assays
# For in vitro permeability assays, C166 cells were treated with Resting neutrophils, Control, NFTP-NPs, FTP-NPs, and NEi groups for 48 h to form an endothelial monolayer, and then Evans Blue (PHYGENE, China) was added to the upper layer of the transwell filters (0.4 μm, Corning). After 30 min, the medium in the lower layer of the chamber was collected to measure the absorbance at 620 nm (Tecan Infinite M200, Switzerland).
# For trans-endothelial invasion assays, […] Hepa1-6/luc cells were seeded into transwell filters (8 μm, Corning) with endothelial cell monolayers pretreated with resting neutrophils, Control, NFTP-NPs, FTP-NPs, and NEi groups. After incubation for 48 h, the transmembrane cells were washed, fixed with 4% paraformaldehyde, stained with crystal violet, and observed under a microscope (Axiovert 200, Zeiss, Germany).
# (§3) All the experiments were performed thrice. […]
# Hepa1-6 cells [4] = assay: Scratch (wound healing) assay; format: cell-based, mouse; conditions: 24 h, medium from activated neutrophils treated with NPs, mean ± s.d., n = 3
# Method: Cell migration and invasion assay
# To produce cell gaps for cell scratch tests, Hepa1-6/luc cells were injected into culture inserts (IBIDI, Germany).
# After 24 hours, the cells were treated with Resting neutrophils, Control, NFTP-NPs, FTP-NPs, and NEi groups.
# Cell migration was monitored during the overnight culture of the cells. […]
# as §1
# Murine C166 endothelial cells (3×10^4cells/well) were placed on 96-well plates coated with Matrigel (356231,
# Corning, New York, USA) and incubated with various treatments. […]
# as §2
# For in vitro permeability assays, C166 cells were treated with Resting neutrophils, Control, NFTP-NPs, FTP-
# NPs, and NEi groups for 48 h to form an endothelial monolayer, and then Evans Blue (PHYGENE, China) was
# added to the upper layer of the transwell filters (0.4 μm, Corning). […]
# as §3
# C166 endothelial cells = assay: Matrigel tube formation assay; format: cell-based, mouse; conditions: 6 h, versus Control and NFTP-NPs groups
# Method: as §1
# Murine C166 endothelial cells (3×10^4cells/well) were placed on 96-well plates coated with Matrigel (356231, Corning, New York, USA) and incubated with various treatments. After incubation for six h, capillary-like structures were observed and counted under a microscope (Axiovert 200, Zeiss, Germany). All the experiments […]
# as §2
# For in vitro permeability assays, C166 cells were treated with Resting neutrophils, Control, NFTP-NPs, FTP-NPs, and NEi groups for 48 h to form an endothelial monolayer, and then Evans Blue (PHYGENE, China) was added to the upper layer of the transwell filters (0.4 μm, Corning). […]
# as §3
Substance,PpIX fluorescence on activated neutrophils from 4 h to 12 h (retention) (activated neutrophils),critical aggregation concentration (CAC) [1] [µM],size change in PBS and FBS solutions within 168 h [2],number of Hepa1-6 cells passing through the endothelial monolayer (Hepa1-6 cells [3]),wound healing rate (Hepa1-6 cells [4]),number of tubular structures formed (C166 endothelial cells)
PpIX-GFFVLK-EAIPMSIPPEVK [FTP-NPs],persistently strong PpIX fluorescence signals,5.45,did not change significantly,significantly lower,5.2% ± 1.8%,significantly lower
"PpIX-GGGAAK-EAIPMSIPPEVK [NFTP-NPs, nanoparticles of the non-fibrillar transformable control peptide NFTP]",dropped sharply,3.75,did not change significantly,–,–,–
